Laboratory results: patent publication US20230145305A1, “COMPOUNDS USEFUL AS KINASE INHIBITORS” (Fochon Biosciences, Ltd., priority 2020, published 2023)

System: OCI-LY10 cells
Assay: Cell proliferation assay (MTS) in OCI-LY10 cells
Format: cell-based
Conditions: Homo sapiens; inhibition of OCI-LY10 cells proliferation, 72 h incubation, MTS, absorbance at 490 nm; read-out: OCI-LY10 IC50
Text: MTS testing kit was purchased from Promega (Madison, Wis., USA). The RPMI-1640, Fetal bovine serum and Penicillin-Streptomycin were purchased from BI (Biological Industries, Beit Haemek, Israel). Dimethyl sulfoxide (DMSO) was purchased from Sigma (St. Louis., Mo., USA). […] To investigate whether a compound is able to inhibit the activity of BTK in cells, a mechanism-based assay using OCI-LY10 cells was developed. In this assay, inhibition of BTK was detected by the inhibition of OCI-LY10 cells proliferation. Cells were plated into 96-well plates at a density of 10000 cells/well. Plates were incubated at 37° C., with 5% CO2 for 4 h. […] Plates were incubated at 37° C., with 5% CO2 for 72 h. 20 μl MTS was added into each well and the plates were incubated at 37° C., with 5% CO2 for exactly 2 h. The absorbance was measured by a microplate reader at 490 nm. IC50 was calculated using GraphPad Prism 5.0 software. Select compounds prepared as described above were assayed according to the biological procedures described herein.

Row | IC50 [nM] | Compound
1 | 4 | COc1ccc(F)cc1C(=O)NCc1ccc(-c2cn(C3CC3)c3c(=O)[nH]nc(N)c23)cc1 [Example 34, N-(4-(4-amino-1-cyclopropyl-7-oxo-6,7-dihydro-1H-pyrrolo[2,3-d]pyridazin-3-yl)benzyl)-5-fluoro-2-methoxybenzamide]
2 | 1 | COc1ccc(F)cc1C(=O)NCc1ccc(-c2nn([C@@H](C)C3CC3)c3c(=O)[nH]nc(N)c23)cc1 [Example 77b, (S)-N-(4-(4-amino-1-(1-cyclopropylethyl)-7-oxo-6,7-dihydro-1H-pyrazolo[3,4-d]pyridazin-3-yl)benzyl)-5-fluoro-2-methoxybenzamide]
3 | 1 | COc1ccc(F)cc1C(=O)NCc1ccc(-c2cn(C3CC(F)(F)C3)c3c(=O)[nH]nc(N)c23)cc1 [Example 54, N-(4-(4-amino-1-(3,3-difluorocyclobutyl)-7-oxo-6,7-dihydro-1H-pyrrolo[2,3-d]pyridazin-3-yl)benzyl)-5-fluoro-2-methoxybenzamide]
4 | 50 | COc1cc(F)c(F)cc1C(=O)NCc1ccc(-c2cn(C3CCCC3)c3c(=O)[nH]nc(N)c23)cc1 [Example 79, N-(4-(4-amino-1-cyclopentyl-7-oxo-6,7-dihydro-1H-pyrrolo[2,3-d]pyridazin-3-yl)benzyl)-4,5-difluoro-2-methoxybenzamide]
5 | 19 | COc1ccc(F)cc1C(=O)NCc1ccc(-c2cn([C@@H]3CCN(S(C)(=O)=O)C3)c3c(=O)[nH]nc(N)c23)cc1 [Example 50, (R)-N-(4-(4-amino-1-(1-(methylsulfonyl)pyrrolidin-3-yl)-7-oxo-6,7-dihydro-1H-pyrrolo[2,3-d]pyridazin-3-yl)benzyl)-5-fluoro-2-methoxybenzamide]
6 | 2 | COc1ccc(F)cc1C(=O)NCc1ccc(-c2cn([C@@H]3CCN(S(=O)(=O)C4CC4)C3)c3c(=O)[nH]nc(N)c23)cc1 [Example 112, (R)-N-(4-(4-amino-1-(1-(cyclopropylsulfonyl)pyrrolidin-3-yl)-7-oxo-6,7-dihydro-1H-pyrrolo[2,3-d]pyridazin-3-yl)benzyl)-5-fluoro-2-methoxybenzamide]
7 | 1 | C=CC(=O)N1CC[C@@H](n2cc(-c3ccc(CNC(=O)c4cc(F)ccc4OC)cc3)c3c(N)n[nH]c(=O)c32)C1 [Example 109, (R)-N-(4-(1-(1-acryloylpyrrolidin-3-yl)-4-amino-7-oxo-6,7-dihydro-1H-pyrrolo [2,3-d]pyridazin-3-yl)benzyl)-5-fluoro-2-methoxybenzamide]
8 | 24 | COc1ccc(F)cc1C(=O)NCc1ccc(-c2cn([C@@H]3C[C@@H]3F)c3c(=O)[nH]nc(N)c23)cc1 [Example 57, N-(4-(4-amino-1-((1R,2S)-2-fluorocyclopropyl)-7-oxo-6,7-dihydro-1H-pyrrolo[2,3-d]pyridazin-3-yl)benzyl)-5-fluoro-2-methoxybenzamide]
9 | 23 | CCS(=O)(=O)N1CC[C@@H](n2cc(-c3ccc(CNC(=O)c4cc(F)ccc4OC)cc3)c3c(N)n[nH]c(=O)c32)C1 [Example 110, (R)-N-(4-(4-amino-1-(1-(ethylsulfonyl)pyrrolidin-3-yl)-7-oxo-6,7-dihydro-1H-pyrrolo[2,3-d]pyridazin-3-yl)benzyl)-5-fluoro-2-methoxybenzamide]
10 | 1 | COc1ccc(F)cc1C(=O)NCc1ccc(-c2nn([C@H](C)C3CC3)c3c(=O)[nH]nc(N)c23)cc1 [Example 77a, (R)-N-(4-(4-amino-1-(1-cyclopropylethyl)-7-oxo-6,7-dihydro-1H-pyrazolo[3,4-d]pyridazin-3-yl)benzyl)-5-fluoro-2-methoxybenzamide]

Second part, the molecule before the results:

Row | Compound | IC50 [nM]
11 | COc1ccc(F)cc1C(=O)NCc1ccc(-n2nc(C3CCCC3)c3ccnc(N)c32)cc1 [Example 14, N-(4-(7-amino-3-cyclopentyl-1H-pyrazolo [3,4-c]pyridin-1-yl)benzyl)-5-fluoro-2-methoxybenzamide] | 85
12 | COc1ccc(F)cc1C(=O)NCc1ccc(-n2nc(CC3CC3)c3c(=O)[nH]nc(N)c32)cc1 [Example 93, N-(4-(7-amino-3-(cyclopropylmethyl)-4-oxo-4,5-dihydro-1H-pyrazolo[3,4-d]pyridazin-1-yl)benzyl)-5-fluoro-2-methoxybenzamide] | 24
13 | COc1ccc(F)cc1C(=O)NCc1ccc(-c2nn([C@@H](C(F)F)C3CC3)c3c(=O)[nH]nc(N)c23)cc1 [Example 89, (R)-N-(4-(4-amino-1-(1-cyclopropyl-2,2-difluoroethyl)-7-oxo-6,7-dihydro-1H-pyrazolo[3,4-d]pyridazin-3-yl)benzyl)-5-fluoro-2-methoxybenzamide] | 1
14 | COc1ccc(F)cc1C(=O)NCc1ccc(-c2nc(C3CCCC3)n3ccnc(N)c23)cc1 [Example 13, N-(4-(8-amino-3-cyclopentylimidazo [l,5-a]pyrazin-1-yl)benzyl)-5-fluoro-2-methoxybenzamide] | 2
15 | COc1ccc(F)cc1C(=O)NCc1ccc(-c2nn(C3CCCC3)c3c(=O)[nH]nc(N)c23)c(F)c1 [Example 63, N-(4-(4-amino-1-cyclopentyl-7-oxo-6,7-dihydro-1H-pyrazolo[3,4-d]pyridazin-3-yl)-3-fluorobenzyl)-5-fluoro-2-methoxybenzamide] | 1
16 | COc1ccc(F)cc1C(=O)NCc1ccc(-c2nn([C@H](C)C(F)(F)F)c3c(=O)[nH]nc(N)c23)cc1 [Example 40b, (R)-N-(4-(4-amino-7-oxo-1-(1,1,1-trifluoropropan-2-yl)-6,7-dihydro-1H-pyrazolo[3,4-d]pyridazin-3-yl)benzyl)-5-fluoro-2-methoxybenzamide] | 83
17 | COc1ccc(F)cc1C(=O)NCc1ccc(-c2nn([C@@H](CF)C3CC3)c3c(=O)[nH]nc(N)c23)cc1 [Example 88, (R)-N-(4-(4-amino-1-(1-cyclopropyl-2-fluoroethyl)-7-oxo-6,7-dihydro-1H-pyrazolo[3,4-d]pyridazin-3-yl)benzyl)-5-fluoro-2-methoxybenzamide] | 1
18 | COc1ccc(F)cc1C(=O)NCc1ccc(-n2nc(C3CCCO3)c3c(=O)[nH]nc(N)c32)cc1 (stereo not drawn) [Example 86, N-(4-(7-amino-4-oxo-3-(tetrahydrofuran-2-yl)-4,5-dihydro-1H-pyrazolo[3,4-d]pyridazin-1-yl)benzyl)-5-fluoro-2-methoxybenzamide] | 90
19 | COc1ccc(F)cc1C(=O)NCc1ccc(-c2cn(C(C)C(F)(F)F)c3c(=O)[nH]nc(N)c23)cc1F (stereo not drawn) [Example 53, N-(4-(4-amino-7-oxo-1-(1,1,1-trifluoropropan-2-yl)-6,7-dihydro-1H-pyrrolo[2,3-d]pyridazin-3-yl)-2-fluorobenzyl)-5-fluoro-2-methoxybenzamide] | 3
20 | COc1ccc(F)cc1C(=O)NCc1ccc(-c2nn([C@@H]3CCCC3(F)F)c3c(=O)[nH]nc(N)c23)cc1 [Example 72, (R)-N-(4-(4-amino-1-(2,2-difluorocyclopentyl)-7-oxo-6,7-dihydro-1H-pyrazolo[3,4-d]pyridazin-3-yl)benzyl)-5-fluoro-2-methoxybenzamide] | 1
21 | COc1ccc(F)cc1C(=O)NCc1ccc(-c2nn([C@@H](C)C(F)(F)F)c3c(=O)[nH]nc(N)c23)cc1 [Example 40a, (S)-N-(4-(4-amino-7-oxo-1-(1,1,1-trifluoropropan-2-yl)-6,7-dihydro-1H-pyrazolo[3,4-d]pyridazin-3-yl)benzyl)-5-fluoro-2-methoxybenzamide] | 7
